We go through 1 compound from patent US20190000790A1, “PPAR-GAMMA ACTIVATORS AND THEIR THE[…]” (THERIAC B[…]., priority 2015, published 2019).

One assay concerns human PPARγ. Nature of the assay: Reporter gene bioassay of PPAR transcriptional activity (Gal4-hPPARγ / UAStkLuc luciferase in 293 cells). Type of assay: cell-based. To be noted: each compound alone, 16 h, FIGS. 1A and B. The procedure: FIG. 1A, 1B illustrate a transcriptional activation of PPARγ by BNZ and PAA. Luciferase assay was performed in 293 cells transfected with Gal4-hPPARγ and UAStkLuc reporter construct and treated for 16 h with respective compounds. Data are expressed as fold change ±SEM compared to untreated cells set at 1.0.*, P<0.05; **, P<0.001.
FIG. 1C illustrates the additive effect of SB and PAA on transcriptional activity of PPARγ. Luciferase assay was performed in 293 cells transfected with Gal4-hPPARγ and UAStkLuc reporter construct and treated 10 mM of each compound for 16 h. Data are expressed as fold change ±SEM compared to untreated cells set at 1.0.*, P<0.001.
Human embryonic kidney 293 cells were seeded in DMEM supplemented with 5% charcoal dextran-treated FBS and transfected with Gal4 DBD fusion of PPAR isoforms and UAStkLuc reporter as described (12). Cells were then treated for 16 hrs and harvested for luciferase activity. Luciferase values were normalized for transfection efficiency to β-galactosidase activity and expressed as relative fold response compared to untreated cells. Data are derived from at least four independent experiments performed in triplicates. […]
(Reporter assays use an easily measured gene product as a stand-in for the process of interest.)

The next assay deals with CD4+ T cells. Kind of assay: Treatment of CD4+ T cells from healthy volunteers and Systemic Lupus Erythematosus patients. Type of assay: cell-based, human. To be noted: preliminary data, FIG. 6; CD4+ T cells stimulated with α-CD3/CD28 beads. From the text: FIG. 6 illustrates BZN+PAA (HIP-002) treatment of T cells derived from healthy volunteer (HV) and Systemic Lupus Erythematous (SLE) patients.
Next, we examined if BZN+PAA can improve immune function of T lymphocytes in Systemic Lupus Erythematosus (SLE). […] Dilutions effects of the BZN+PAA drug (HIP-002) are shown. (FIG. 6A). CD4+ T cells were stimulated with α-CD3/CD28 beads for 4 (red) or 5 (black) days and cytotoxicity determined by Live/Dead staining. (FIG. 6B) CD4+ T cells were stimulated as in (FIG. 6A) for 5 days, and the surface expression of CD154 and CD25 measured by FACS analysis. (FIG. 6C) CD4+ T cells were stimulated as in (FIG. 6A), and proliferation measured by dilution of the CellTrace Violet dye. White bars: HV; n=2-3. Gray bars: SLE patients; n=3-4. * p<0.05, ** p<0.01, *** p<0.0001.

The structures appear in SMILES notation.

With `O=C([O-])c1ccccc1.[Na+]` [BNZ, benzoate], the “PPARγ activity (transcriptional activation, luciferase)” value in the assay on human PPARγ is on record as “significantly potent in increasing PPARγ activity”. In addition, the “effect on growth and survival of T lymphocytes” value in the assay on CD4+ T cells was “beneficial effect on the growth and survival of these cells”.
